Results published in patent publication US7915276B2, “Berberrubine derivatives having antifungal activities” (priority 2006, dated 2011).

How the values were obtained:
[1] = test system: Candida glabrata ATCC 48435; experiment: In vitro antifungal activity (MIC), NCCLS method; type: cell-based; conditions: Candida glabrata ATCC 48435; 48 hours
In short: (§1)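 Broth microdilution per NCCLS: two-fold serial dilutions of test compound inoculated with fungal suspension at a final 5×10^2 to 2.5×10^3 cell/mL. Strains other than Cryptococcus neoformans were incubated 48 hours before MIC reading.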

[2] = test system: Aspergillus fumigatus ATCC 16424; experiment: In vitro antifungal activity (MIC), NCCLS method; type: cell-based; conditions: 48 hours
In short: as §1

[3] = test system: Candida tropicalis ATCC 13803; experiment: In vitro antifungal activity (MIC), NCCLS method; type: cell-based; conditions: 48 hours
In short: as §1

Candida krusei ATCC 6258 = experiment: In vitro antifungal activity (MIC), NCCLS method; type: cell-based; conditions: 48 hours
In short: as §1

[4] = test system: Aspergillus flavus ATCC 64025; experiment: In vitro antifungal activity (MIC), NCCLS method; type: cell-based; conditions: 48 hours
In short: as §1

[5] = test system: Candida albicans ATCC 10231; experiment: In vitro antifungal activity (MIC), NCCLS method; type: cell-based; conditions: 48 hours
In short: as §1

[6] = test system: Mucor ramosissimus ATCC 90286; experiment: In vitro antifungal activity (MIC), NCCLS method; type: cell-based; conditions: 48 hours
In short: as §1

[7] = test system: Candida parapsilosis ATCC 34136; experiment: In vitro antifungal activity (MIC), NCCLS method; type: cell-based; conditions: Candida parapsilosis ATCC 34136; 48 hours
In short: as §1

[8] = test system: Aspergillus terreus ATCC 46941; experiment: In vitro antifungal activity (MIC), NCCLS method; type: cell-based; conditions: 48 hours
In short: as §1

[9] = test system: Candida albicans A207 (clinical isolate); experiment: In vitro antifungal activity (MIC), NCCLS method; type: cell-based; conditions: 48 hours
In short: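 Broth MIC by NCCLS two-fold dilution, final inoculum 5×10^2 to 2.5×10^3 cell/mL. Candida and Mucor strains incubated 48 hours.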

[10] = test system: Candida lusitaniae ATCC 42720; experiment: In vitro antifungal activity (MIC), NCCLS method; type: cell-based; conditions: 48 hours
In short: as §1

[11] = test system: Cryptococcus neoformans ATCC 36556; experiment: In vitro antifungal activity (MIC), NCCLS method; type: cell-based; conditions: RPMI 1640 medium, 72 hours
In short: as §1

[12] = biological target: T1, chitin synthase 1 of Candida albicans chs2 Δ chs 3 Δ (Candida albicans, UniProt P23316); experiment: In vitro enzyme assay for chitin synthase 1 of Candida albicans (enzyme 1); type: biochemical; conditions: relative to polyoxin D (50% inhibitory activity = value 5)
T1 construct: Crude enzyme was prepared using the Candida albicans chs2 Δ chs 3 Δ mutant; endogenous in cells; host or cells: Candida albicans chs2Δ/chs2Δ chs3Δ/chs3Δ mutant; 130,000 x g membrane pellet
In short: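 Crude membrane enzyme from the C. albicans chs2Δ chs3Δ strain was trypsin-activated for 15 min at 30 °C. Reaction: 32 mM Tris-HCl pH 7.5, 2 mM cobalt acetate, 1.1 mM UDP-[14C]GlcNAc, 90 min at 30 °C; TCA-insoluble radioactivity counted. Scored 1–8 by relative polyoxin D concentration (5 = equal).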

[13] = biological target: T2, chitin synthase 2 of Saccharomyces cerevisiae ECY38-38A(pAS6) (Saccharomyces cerevisiae, UniProt P14180); experiment: In vitro enzyme assay for chitin synthase 2 of Saccharomyces cerevisiae (enzyme 2); type: biochemical; conditions: relative to polyoxin D (50% inhibitory activity = value 5)
T2 construct: made in house; host or cells: Saccharomyces cerevisiae ECY38-38A (chs1-23 chs2::LEU2 cal1/csd2) carrying plasmid pAS6, grown in galactose medium; 130,000 x g membrane pellet
In short: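 Crude membrane chitin synthase 2 came from S. cerevisiae ECY38-38A(pAS6), expressing only CHS2, and was trypsin-activated (15 min, 30 °C) then trypsin-inhibited. The reaction ran in 32 mM Tris-HCl pH 7.5, 2 mM cobalt acetate, 1.1 mM UDP-[14C]-GlcNAc, 90 min at 30 °C. TCA-precipitated product was counted by scintillation; scores 1–8 reflect concentration relative to polyoxin D's 50% inhibition (score 5).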

T2 sequence (P14180 whole entry): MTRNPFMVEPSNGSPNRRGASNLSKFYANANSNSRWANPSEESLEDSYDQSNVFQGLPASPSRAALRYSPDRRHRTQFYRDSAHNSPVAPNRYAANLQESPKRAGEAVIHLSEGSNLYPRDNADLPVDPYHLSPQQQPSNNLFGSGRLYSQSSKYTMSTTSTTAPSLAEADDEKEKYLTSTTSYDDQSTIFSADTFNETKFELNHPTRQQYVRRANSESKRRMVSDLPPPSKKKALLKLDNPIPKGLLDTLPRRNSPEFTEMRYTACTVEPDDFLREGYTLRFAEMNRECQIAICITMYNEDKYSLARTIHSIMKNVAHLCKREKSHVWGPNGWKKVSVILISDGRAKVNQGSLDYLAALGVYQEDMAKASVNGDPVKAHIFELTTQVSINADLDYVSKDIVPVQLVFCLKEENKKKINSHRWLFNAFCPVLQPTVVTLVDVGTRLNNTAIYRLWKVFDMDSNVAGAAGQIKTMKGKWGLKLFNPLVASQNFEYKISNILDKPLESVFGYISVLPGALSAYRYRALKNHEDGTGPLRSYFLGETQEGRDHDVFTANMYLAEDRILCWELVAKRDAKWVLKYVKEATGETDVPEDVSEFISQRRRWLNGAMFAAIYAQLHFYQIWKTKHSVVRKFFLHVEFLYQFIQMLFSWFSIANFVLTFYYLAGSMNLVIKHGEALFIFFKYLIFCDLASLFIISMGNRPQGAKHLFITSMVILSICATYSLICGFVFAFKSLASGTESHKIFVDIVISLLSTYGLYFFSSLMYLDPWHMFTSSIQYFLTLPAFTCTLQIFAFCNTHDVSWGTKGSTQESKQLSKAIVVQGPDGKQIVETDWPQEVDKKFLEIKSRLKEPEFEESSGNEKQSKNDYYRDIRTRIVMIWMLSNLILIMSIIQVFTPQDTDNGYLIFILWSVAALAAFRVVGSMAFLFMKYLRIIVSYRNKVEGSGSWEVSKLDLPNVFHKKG
T1 sequence (P23316 whole entry, stated change not applied): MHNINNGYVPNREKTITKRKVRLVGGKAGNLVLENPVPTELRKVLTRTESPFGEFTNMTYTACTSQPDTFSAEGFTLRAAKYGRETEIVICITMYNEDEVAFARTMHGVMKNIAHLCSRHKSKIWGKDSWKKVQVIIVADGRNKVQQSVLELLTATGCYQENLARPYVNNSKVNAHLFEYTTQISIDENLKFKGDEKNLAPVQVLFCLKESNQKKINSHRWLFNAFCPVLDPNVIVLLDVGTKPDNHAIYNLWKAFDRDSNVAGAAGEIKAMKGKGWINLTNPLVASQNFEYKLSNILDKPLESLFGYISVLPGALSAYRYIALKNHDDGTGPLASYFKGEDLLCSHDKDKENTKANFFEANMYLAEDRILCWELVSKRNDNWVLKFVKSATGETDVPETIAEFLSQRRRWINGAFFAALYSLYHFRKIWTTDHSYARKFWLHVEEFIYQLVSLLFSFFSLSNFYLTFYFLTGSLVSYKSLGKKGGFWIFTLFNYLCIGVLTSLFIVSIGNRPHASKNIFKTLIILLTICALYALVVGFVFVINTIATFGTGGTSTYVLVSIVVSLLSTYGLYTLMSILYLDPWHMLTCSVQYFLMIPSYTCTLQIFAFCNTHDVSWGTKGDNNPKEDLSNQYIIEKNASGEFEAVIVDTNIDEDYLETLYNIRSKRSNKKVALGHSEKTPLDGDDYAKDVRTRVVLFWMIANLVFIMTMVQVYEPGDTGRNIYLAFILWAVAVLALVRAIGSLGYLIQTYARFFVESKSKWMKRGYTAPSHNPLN

| Substance | MIC (minimum inhibitory concentration) [1] [µg/mL] | MIC (minimum inhibitory concentration) [2] [µg/mL] | MIC (minimum inhibitory concentration) [3] [µg/mL] | MIC (minimum inhibitory concentration) (Candida krusei ATCC 6258) [µg/mL] | MIC (minimum inhibitory concentration) [4] [µg/mL] | MIC (minimum inhibitory concentration) [5] [µg/mL] | MIC (minimum inhibitory concentration) [6] [µg/mL] | MIC (minimum inhibitory concentration) [7] [µg/mL] | MIC (minimum inhibitory concentration) [8] [µg/mL] | MIC (minimum inhibitory concentration) [9] [µg/mL] | MIC (minimum inhibitory concentration) [10] [µg/mL] | MIC (minimum inhibitory concentration) [11] [µg/mL] | Relative activity Enzyme 1 [12] | Relative activity Enzyme 2 [13] |
| --- | --- | --- | --- | --- | --- | --- | --- | --- | --- | --- | --- | --- | --- | --- |
| 13-(4-Isopropylbenzyl)-9-O-(3-hydroxypropyl)berberrubine chloride [Compound No. 53] | 2 | 2 | 0.5 | 1 | 8 | 0.5 | 4 | 2 | 8 | 0.5 | 2 | 1 | 4 (Compounds having the inhibitory activity at 2-fold, 4-fold, 8-fold and 16-fold higher concentrations than that of polyoxin D were given the values of 4, 3, 2 and 1, respectively) | 6 (compounds having the inhibitory activity at ½, ¼ and ⅛ lower concentrations than that of polyoxin D were given the values of 6, 7 and 8, respectively) |
| 13-(4-Isopropylbenzyl)-9-O-octylberberrubine chloride [Compound No. 52] | 1 | 2 | 0.125 | 1 | 4 | 0.25 | 2 | 1 | 4 | 0.25 | 0.5 | 0.5 | 2 (Compounds having the inhibitory activity at 2-fold, 4-fold, 8-fold and 16-fold higher concentrations than that of polyoxin D were given the values of 4, 3, 2 and 1, respectively) | 6 (compounds having the inhibitory activity at ½, ¼ and ⅛ lower concentrations than that of polyoxin D were given the values of 6, 7 and 8, respectively) |
| 13-(4-Isopropylbenzyl)-9-O-crotylberberrubine bromide [Compound No. 24] | 4 | 2 | 0.5 | 1 | 8 | 0.5 | 4 | 4 | 4 | 0.5 | 1 | 1 | 2 (Compounds having the inhibitory activity at 2-fold, 4-fold, 8-fold and 16-fold higher concentrations than that of polyoxin D were given the values of 4, 3, 2 and 1, respectively) | 5 (A compound having the same inhibitory activity as that of polyoxin D at the same concentration was given the value 5) |
| 13-(4-tert-Butylbenzyl)-9-O-(4-isopropylbenzyl)berberrubine bromide [Compound No. 16] | 2 | 4 | 1 | 2 | 8 | 1 | 8 | 8 | 8 | 1 | 4 | 2 | 3 (Compounds having the inhibitory activity at 2-fold, 4-fold, 8-fold and 16-fold higher concentrations than that of polyoxin D were given the values of 4, 3, 2 and 1, respectively) | 5 (A compound having the same inhibitory activity as that of polyoxin D at the same concentration was given the value 5) |
| 13-(4-Isopropylbenzyl)-9-O-hexylberberrubine chloride [Compound No. 51] | 2 | 2 | 0.125 | 1 | 8 | 0.25 | 4 | 2 | 8 | 0.25 | 0.5 | 0.5 | 3 (Compounds having the inhibitory activity at 2-fold, 4-fold, 8-fold and 16-fold higher concentrations than that of polyoxin D were given the values of 4, 3, 2 and 1, respectively) | 6 (compounds having the inhibitory activity at ½, ¼ and ⅛ lower concentrations than that of polyoxin D were given the values of 6, 7 and 8, respectively) |
| 13-(4-Isopropylbenzyl)-9-O-(4-isopropylbenzyl)berberrubine chloride [Compound No. 58] | 2 | 4 | 1 | 2 | 8 | 1 | 8 | 8 | 8 | 1 | 4 | 2 | 2 (Compounds having the inhibitory activity at 2-fold, 4-fold, 8-fold and 16-fold higher concentrations than that of polyoxin D were given the values of 4, 3, 2 and 1, respectively) | 5 (A compound having the same inhibitory activity as that of polyoxin D at the same concentration was given the value 5) |
| 13-(4-tert-Butylbenzyl)-9-O-hexylberberrubine iodide [Compound No. 9] | 2 | 2 | 0.125 | 1 | 8 | 0.25 | 4 | 2 | 8 | 0.25 | 1 | 1 | 3 (Compounds having the inhibitory activity at 2-fold, 4-fold, 8-fold and 16-fold higher concentrations than that of polyoxin D were given the values of 4, 3, 2 and 1, respectively) | 6 (compounds having the inhibitory activity at ½, ¼ and ⅛ lower concentrations than that of polyoxin D were given the values of 6, 7 and 8, respectively) |
| 13-(4-tert-Butylbenzyl)-9-O-allylberberrubine iodide [Compound No. 13] | 8 | 8 | 1 | 2 | 8 | 1 | 4 | 4 | 8 | 1 | 2 | 2 | 2 (Compounds having the inhibitory activity at 2-fold, 4-fold, 8-fold and 16-fold higher concentrations than that of polyoxin D were given the values of 4, 3, 2 and 1, respectively) | 5 (A compound having the same inhibitory activity as that of polyoxin D at the same concentration was given the value 5) |
